These results are taken from US10233186B2, “Inhibitors of activin receptor-like kinase” (BLUEPRINT MEDICINES CORPORATION, priority 2016, dated 2019).

The target of this assay is T1, ALK2 R206H (GST-tagged mutant ALK2) (Homo sapiens, UniProt Q04771, R206H).
T1 construct: purchased Carna Bioscience or ThermoFisher 09-148 or PV6232
T1 sequence (Q04771 21-509 R206H): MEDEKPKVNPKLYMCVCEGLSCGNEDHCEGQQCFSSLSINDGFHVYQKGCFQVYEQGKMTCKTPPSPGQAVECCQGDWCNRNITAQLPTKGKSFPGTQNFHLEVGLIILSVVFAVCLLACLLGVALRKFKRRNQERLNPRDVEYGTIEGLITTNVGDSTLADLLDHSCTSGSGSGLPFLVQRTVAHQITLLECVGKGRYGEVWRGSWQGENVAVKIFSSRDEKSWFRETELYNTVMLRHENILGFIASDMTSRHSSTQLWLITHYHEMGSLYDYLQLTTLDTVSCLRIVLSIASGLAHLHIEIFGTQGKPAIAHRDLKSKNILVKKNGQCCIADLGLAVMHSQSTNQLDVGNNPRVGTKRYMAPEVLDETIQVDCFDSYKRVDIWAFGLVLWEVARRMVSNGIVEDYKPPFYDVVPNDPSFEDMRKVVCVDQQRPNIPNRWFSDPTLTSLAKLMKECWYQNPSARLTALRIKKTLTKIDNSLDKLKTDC
Nature of the assay: ALK binding assay (LANTHASCREEN TR-FRET competitive binding, displacement of Kinase Tracer 178). Conditions: ALK2 R206H, LANTHASCREEN TR-FRET competitive binding; read-out: Binding Assay (IC50). Here is the method: Binding assays were conducted using the LANTHASCREEN® technology (ThermoFisher Scientific). LANTHASCREEN® is a competitive binding, displacement assay where the assumed steady state occupancy of the binding site is measured using a time-resolved, fluorescence energy transfer (TR-FRET) readout between a fluorescent tracer and Europium (Eu)-tagged antibody specific for the kinase or expression tag (e.g. GST) of interest. Displacement of the tracer by a compound of the disclosure reduces, and is directly proportional to, the TR-FRET between the tracer and the antibody. Tracer was used at a concentration equal to or near to its Kd for the kinase.
In all cases, the kinase (2-5 nM) was mixed with Eu-tagged antibody (10 nM) mix and tracer (50 nM) were incubated with test compound titrations prepared in 100% DMSO (1% DMSO final) for 30 minutes at room temperature. All reagents and compounds were dissolved in Kinase Buffer A (ThermoFisher) to achieve the final concentration. […] This readout was normalized to 0% and 100% inhibited control wells, plotted against inhibitor concentration, and fitted to a 4-parameter log dose response curve.
Blank values in the table indicate that the particular compound was not tested in this assay.
A general note: Time-resolved FRET reads energy transfer from a long-lived donor to a nearby acceptor.
On to `CCN1CCN(c2ccc(-c3cc4c(N5CCN(C(=O)C6(c7ccsc7)CC6)CC5)ccnn4c3)cc2)CC1` [Compound 439], for which the IC50 lay within 10 to 50 nM.

For the compound `CCN1CCN(c2ccc(-c3cc4c(N5CCN(C(=O)C6(c7nccs7)CC6)CC5)ccnn4c3)cc2)CC1` [Compound 440], the IC50 was over 50 nM.

For the compound `CCN1CCN(c2ccc(-c3cc4c(N5CCN(C(=O)C6(c7cccc(F)c7)CC6)CC5)ccnn4c3)cc2)CC1` [Compound 443], the IC50 was 10 to 50 nM.

Take `CCN1CCC(c2ccc(-c3cc4c(N5CCN(C(=O)C6CC6c6ccc(Cl)cc6)CC5)ccnn4c3)cc2)C1` (centres unmarked) [Compound 444]: the IC50 fell in the range of 10 to 50 nM.

Consider `CCN1CCC(c2ccc(-c3cc4c(N5CCN(C(=O)C6CC(O)(c7ccccc7)C6)CC5)ccnn4c3)cc2)CC1` (centres unmarked) [Compound 446], for which the IC50 was under 10 nM.

`N[C@H]1CCc2cc(-c3cc4c(N5CCN(C(=O)C6CC6)CC5)ccnn4c3)ccc21` [Compound 449]: the IC50 is under 10 nM.

`O=C(C1CC1)N1CCN(c2ccnn3cc(-c4ccc(C5=CCNCC5)cc4)cc23)CC1` [Compound 458]: the IC50 was under 10 nM.

Take `N[C@H]1CCN(c2ccc(-c3cc4c(N5CCN(C(=O)C6CC6)CC5)ccnn4c3)cc2)C1` [Compound 461]: the IC50 is under 10 nM.

With `CC(c1ccc(-c2cc3c(N4CCN(C(=O)C5CC5)CC4)ccnn3c2)cc1)N1CCCC1` (centres unmarked) [Compound 471], the IC50 is over 50 nM.

Regarding `CC(C)N[C@H]1CCc2cc(-c3cc4c(N5CCN(C(=O)C6CC6)CC5)ccnn4c3)ccc21` [Compound 472], the IC50 is under 10 nM.

Regarding `CC(C)N1C[C@H](c2ccc(-c3cc4c(N5CCN(C(=O)C6CC6)CC5)ccnn4c3)cc2)C[C@H]1C` [Compound 506], the IC50 was 10 to 50 nM.

As to `CC(C)N1CCC(c2ncc(-c3cc4c(N5CCN(C(=O)C6CC6)CC5)ccnn4c3)cn2)CC1` [Compound 525], the IC50 is under 10 nM.

In the case of `CC(C)N1CCN(c2cnc(-c3cc4c(N5CCN(C(=O)C6CC6)CC5)ccnn4c3)nc2)CC1` [Compound 528], the IC50 is 10 to 50 nM.

With `CC(C)N1CCN(c2cnc(-c3cc4c(N5CCN(C(=O)C6CC6)CC5)ccnn4c3)cn2)CC1` [Compound 529], the IC50 was under 10 nM.

`CCOC(=O)N1CCN(c2ccnn3cc(-c4ccc([C@]5(C)CCCN5C(C)C)cc4)cc23)CC1` [Compound 535]: the IC50 is under 10 nM.

In the case of `CCOC(=O)N1CCN(c2ccnn3cc(-c4ccc([C@@]5(C)CCCN5C(C)C)cc4)cc23)CC1` [Compound 536], the concentration for half-maximal inhibition (IC50) was under 10 nM.

Take `CCNC(=O)N1CCN(c2ccnn3cc(-c4cnc(C5CCN(C(C)C)CC5)nc4)cc23)CC1` [Compound 547]: the IC50 is under 10 nM.

Regarding `CCOC(=O)N1CCN(c2ccnn3cc(-c4cnc(C5CCN(C(C)C)CC5)nc4)cc23)CC1` [Compound 552], the IC50 was under 10 nM.

Consider `CCNC(=O)N1CCN(c2ccnn3cc(-c4ncc(N5CCN(C(C)C)CC5)cn4)cc23)CC1` [Compound 553], for which the IC50 fell in the range of 10 to 50 nM.

As to `CCOC(=O)N1CCN(c2ccnn3cc(-c4ncc(N5CCN(C(C)C)CC5)cn4)cc23)CC1` [Compound 555], the IC50 was under 10 nM.

For `CC(C)N1CCN[C@@](C)(c2ccc(-c3cc4c(N5CCN(C(=O)C6CC6)CC5)ccnn4c3)cc2)C1` [Compound 569], the IC50 is under 10 nM.

`CC(C)N1CC=C(c2ccc(-c3cc4c(N5CCN(C(=O)C6CC6)CC5)ccnn4c3)c(F)c2)CC1` [Compound 571]: the IC50 is under 10 nM.

Take `CC(C)N1CCC(c2ccc(-c3cc4c(N5CCN(C(=O)C6COC6)CC5)ccnn4c3)cc2)CC1` [Compound 574]: the IC50 was under 10 nM.

With `CC(C)N1CCC(c2ccc(-c3cc4c(N5CCN(C(=O)C6CC6)CC5)ccnn4c3)c(F)c2)CC1` [Compound 584], the IC50 was under 10 nM.

On to `COCNC(=O)N1CCN(c2ccnn3cc(-c4ccc(C5CCN(C(C)C)CC5)cc4)cc23)CC1` [Compound 590], for which the IC50 was under 10 nM.

Consider `CCOC(=O)N1CCN(c2ccnn3cc(-c4ccc(C5=CCN(C(C)C)CC5)cc4F)cc23)CC1` [Compound 602], for which the IC50 was under 10 nM.

Regarding `CC(C)NC(=O)N1CCN(c2ccnn3cc(-c4ccc([C@]5(O)CCN(C(C)C)C5)cn4)cc23)CC1` [Compound 607], the IC50 is under 10 nM.

Turning to `CCOC(=O)N1CCN(c2ccnn3cc(-c4ccc(C5CCN(C(C)C)CC5)cc4F)cc23)CC1` [Compound 612], the IC50 is under 10 nM.

Regarding `CCNC(=O)N1CCN(c2ccnn3cc(-c4ccc([C@]5(OC)CCCN(C(C)C)C5)cc4)cc23)CC1` [Compound 639], the IC50 is under 10 nM.

With `CCNC(=O)N1CCN(c2ccnn3cc(-c4ccc([C@@]5(OC)CCCN(C(C)C)C5)cc4)cc23)CC1` [Compound 640], the IC50 was under 10 nM.

On to `CC(C)N1CCC(c2ccc(-c3cc4c(N5CCN(C(=O)OCC(C)(C)C)CC5)ccnn4c3)cc2)CC1` [Compound 670], for which the IC50 was under 10 nM.

In the case of `CC(C)NC(=O)N1CCN(c2ccnn3cc(-c4ccc(C5CCN(C(C)C)CC5)cc4Cl)cc23)CC1` [Compound 700], the IC50 is under 10 nM.

For `CC(C)N1CCCC(O)(c2ccc(-c3cc4c(N5CCN(C(=O)C6CC(C#N)C6)CC5)ccnn4c3)cc2)C1` (centres unmarked) [Compound 707], the half-inhibitory concentration (IC50) was under 10 nM.

As to `CCO[C@]1(c2ccc(-c3cc4c(N5CCN(C(=O)NC(C)C)CC5)ccnn4c3)nc2)CCCN(C(C)C)C1` [Compound 717], the IC50 is under 10 nM.

Regarding `COC1(c2ccc(-c3cc4c(N5CCN(C(=O)C6CC(C#N)C6)CC5)ccnn4c3)cc2)CCCN(C(C)C)C1` (centres unmarked) [Compound 730], the IC50 was under 10 nM.

For `COC1(c2ccc(-c3cc4c(N5CCN(C(=O)[C@H]6C[C@H](C#N)C6)CC5)ccnn4c3)nc2)CCN([C@H](C)CO)CC1` [Compound 742], the IC50 was under 10 nM.

In the case of `NCC(O)c1ccc(-c2cc3c(N4CCN(C(=O)C5CC5)CC4)ccnn3c2)cc1` (centres unmarked) [Compound 751], the IC50 was under 10 nM.

With `O=C(C1CC1)N1CCN(c2ccnn3cc(-c4ccc(CNCCO)cc4)cc23)CC1` [Compound 756], the IC50 is under 10 nM.

For the compound `NC(CO)Cc1ccc(-c2cc3c(N4CCN(C(=O)C5CC5)CC4)ccnn3c2)cc1` (centres unmarked) [Compound 757], the IC50 is under 10 nM.

For `COCC(N)c1ccc(-c2cc3c(N4CCN(C(=O)C5CC5)CC4)ccnn3c2)cc1` (centres unmarked) [Compound 758], the IC50 is under 10 nM.

`NC(CO)c1ccc(-c2cc3c(N4CCN(C(=O)C5CC5)CC4)ccnn3c2)c(F)c1` (centres unmarked) [Compound 759]: the IC50 was under 10 nM.

Turning to `CCS(=O)(=O)c1ccc(-c2cc3c(N4CCN(C(=O)C5CC5)CC4)ccnn3c2)cc1` [Compound 765], the IC50 is under 10 nM.

Take `O=C(C1CC1)N1CCN(c2ccnn3cc(-c4ccc(C5CC6(CNC6)C5)cc4)cc23)CC1` [Compound 767]: the IC50 is under 10 nM.

For the compound `NC(c1ccc(-c2cc3c(N4CCN(C(=O)C5CC5)CC4)ccnn3c2)cc1)C1CCCO1` (centres unmarked) [Compound 769], the IC50 is under 10 nM.

With `O=C(C1CC1)N1CCN(c2ccnn3cc(-c4ccc(C5(C(=O)O)CCNCC5)cc4)cc23)CC1` [Compound 781], the half-maximal inhibitory concentration (IC50) lay in the range of 10 to 50 nM.

With `CO[C@]1(c2ccc(-c3cc4c(N5CCN(C(=O)NC(C)C)CC5)ccnn4c3)cc2F)CCCNC1` [Compound 806], the IC50 was under 10 nM.

As for `CO[C@@]1(c2ccc(-c3cc4c(N5CCN(C(=O)NC(C)C)CC5)ccnn4c3)cc2F)CCCNC1` [Compound 807], the IC50 is under 10 nM.

On to `CC(C)N1CCC(c2ccc(-c3cc4c(N5CCN(C(=O)NCC(F)F)CC5)ccnn4c3)cc2)CC1` [Compound 822], for which the IC50 fell in the range of 10 to 50 nM.

In the case of `CC(C)N1CCC(c2ccc(-c3cc4c(N5CCN(C(=O)N6CC7(COC7)C6)CC5)ccnn4c3)cc2)CC1` [Compound 841], the IC50 was in the range of 10 to 50 nM.

Take `CC(C)N1CCC(c2ccc(-c3cc4c(N5CCN(C(=O)N6CCC67COC7)CC5)ccnn4c3)cc2)CC1` [Compound 842]: the IC50 fell in the range of 10 to 50 nM.

`CCOC1(c2ccc(-c3cc4c(N5CCN(C(=O)NC(C)C)CC5)ccnn4c3)nc2)CCN(C[C@@H](C)F)CC1` [Compound 862]: the IC50 is under 10 nM.

Turning to `CCOC1(c2ccc(-c3cc4c(N5CCN(C(=O)O[C@@H](C)CF)CC5)ccnn4c3)nc2)CCN(C(C)C)CC1` [Compound 866], the IC50 was under 10 nM.

Turning to `CCOC1(c2ccc(-c3cc4c(N5CCN(C(=O)OC6COC6)CC5)ccnn4c3)nc2)CCN(C(C)CF)CC1` (centres unmarked) [Compound 881], the IC50 is under 10 nM.

Usually IC50 stands for the concentration needed to halve the response being measured.
